From publication PMC6267221, “Renal Cell Carcinoma Is Abrogated by p53 Stabilization through Transglutaminase 2 Inhibition” (Cancers, 2018)

T1: transglutaminase 2 (TGase 2) (Homo sapiens, UniProt P21980)
T1 construct: gene TGM2; recombinant human TGase 2, polyhistidine-tagged
T1 sequence (P21980 2-687): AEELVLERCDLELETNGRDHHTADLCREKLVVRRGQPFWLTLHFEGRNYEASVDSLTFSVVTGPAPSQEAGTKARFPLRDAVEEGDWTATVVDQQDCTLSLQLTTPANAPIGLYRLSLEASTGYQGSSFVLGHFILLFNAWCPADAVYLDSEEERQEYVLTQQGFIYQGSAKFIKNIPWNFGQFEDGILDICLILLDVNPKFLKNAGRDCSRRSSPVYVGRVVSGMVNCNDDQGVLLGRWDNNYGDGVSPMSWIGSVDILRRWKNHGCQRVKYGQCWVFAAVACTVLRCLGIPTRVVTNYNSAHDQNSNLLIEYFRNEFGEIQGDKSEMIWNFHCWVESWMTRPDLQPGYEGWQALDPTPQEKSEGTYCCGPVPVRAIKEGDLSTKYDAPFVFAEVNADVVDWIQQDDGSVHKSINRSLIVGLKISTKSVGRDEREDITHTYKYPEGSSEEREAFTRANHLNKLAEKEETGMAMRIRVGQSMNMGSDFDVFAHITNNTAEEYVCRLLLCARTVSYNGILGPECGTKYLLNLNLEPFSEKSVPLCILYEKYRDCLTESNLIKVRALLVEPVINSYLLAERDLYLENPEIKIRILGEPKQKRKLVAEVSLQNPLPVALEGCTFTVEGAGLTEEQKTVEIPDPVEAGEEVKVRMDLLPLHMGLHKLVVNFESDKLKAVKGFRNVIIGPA

T2: guinea pig liver TGase 2 (UniProt P08587)
T2 construct: gene TGM2
T2 sequence (P08587 2-690): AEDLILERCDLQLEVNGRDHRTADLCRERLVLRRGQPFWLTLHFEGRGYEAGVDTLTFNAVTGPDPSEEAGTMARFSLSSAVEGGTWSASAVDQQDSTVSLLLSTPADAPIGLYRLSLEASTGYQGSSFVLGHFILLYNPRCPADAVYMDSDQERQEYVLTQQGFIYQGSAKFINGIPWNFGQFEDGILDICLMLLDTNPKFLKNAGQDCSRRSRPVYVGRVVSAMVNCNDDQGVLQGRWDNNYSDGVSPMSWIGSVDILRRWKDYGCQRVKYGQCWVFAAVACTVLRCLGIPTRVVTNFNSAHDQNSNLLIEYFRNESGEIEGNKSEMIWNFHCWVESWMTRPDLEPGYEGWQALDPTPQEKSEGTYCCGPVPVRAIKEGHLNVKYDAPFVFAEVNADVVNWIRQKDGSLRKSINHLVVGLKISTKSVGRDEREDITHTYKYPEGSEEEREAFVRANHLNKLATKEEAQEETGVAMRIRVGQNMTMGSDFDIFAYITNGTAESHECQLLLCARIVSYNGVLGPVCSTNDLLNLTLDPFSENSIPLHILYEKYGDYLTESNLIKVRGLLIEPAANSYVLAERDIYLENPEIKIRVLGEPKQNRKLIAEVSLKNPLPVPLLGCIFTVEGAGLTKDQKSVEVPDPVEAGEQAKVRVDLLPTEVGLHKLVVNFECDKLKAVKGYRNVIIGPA

T3: TGase 2 (as run on native gels), P21980
T3 chain: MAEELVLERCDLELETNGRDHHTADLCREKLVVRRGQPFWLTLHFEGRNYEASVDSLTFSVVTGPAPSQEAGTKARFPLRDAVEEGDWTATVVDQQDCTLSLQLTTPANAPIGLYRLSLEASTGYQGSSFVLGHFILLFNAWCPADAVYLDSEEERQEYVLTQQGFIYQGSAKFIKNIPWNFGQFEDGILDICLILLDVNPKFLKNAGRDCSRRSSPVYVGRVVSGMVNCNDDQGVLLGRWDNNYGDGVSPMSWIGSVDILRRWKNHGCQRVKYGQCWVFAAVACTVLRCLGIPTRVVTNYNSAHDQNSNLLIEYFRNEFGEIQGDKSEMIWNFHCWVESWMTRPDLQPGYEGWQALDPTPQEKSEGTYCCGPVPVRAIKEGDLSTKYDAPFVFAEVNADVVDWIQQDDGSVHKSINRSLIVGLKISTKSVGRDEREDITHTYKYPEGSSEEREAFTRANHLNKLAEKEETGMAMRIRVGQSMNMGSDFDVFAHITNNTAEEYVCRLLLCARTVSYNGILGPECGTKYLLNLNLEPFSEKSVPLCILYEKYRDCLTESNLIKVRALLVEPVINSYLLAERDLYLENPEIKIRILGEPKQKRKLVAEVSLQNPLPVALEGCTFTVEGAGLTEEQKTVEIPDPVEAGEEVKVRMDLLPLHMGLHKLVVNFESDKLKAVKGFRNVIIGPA


How the values were obtained:
[1] = target: T1, transglutaminase 2 (TGase 2); assay: SPR (ProteOn XPR36); MS peptide masking supports the site; type: binding
guinea pig liver TGase 2 = target: T2, guinea pig liver TGase 2; assay: succinylated casein / […]-putrescine incorporation assay; type: biochemical, Cavia cutleri
[2] = target: T3, TGase 2 (as run on native gels), P21980; assay: native gel or EMSA; TGase 2 incubated with streptonigrin or GTP, 37 °C; native gel, immunoblot of TGase 2; monomer to dimer; conditions: remark: other sources report otherwise

fold increase in the density of the dimer band after streptonigrin treatment [2] [fold]	stoichiometry N [2]	Molecule	Kd [1] [nM]	IC50 (guinea pig liver TGase 2) [nM]
		COC1=C(N)C(=O)c2nc(-c3nc(C(=O)O)c(C)c(-c4ccc(OC)c(OC)c4O)c3N)ccc2C1=O [streptonigrin]	~700	1700
2.4	2	TGase 2 (as run on native gels), P21980 1-687 (enzyme) MAEELVLERCDLELETNGRDHHTADLCREKLVVRRGQPFWLTLHFEGRNYEASVDSLTFSVVTGPAPSQEAGTKARFPLRDAVEEGDWTATVVDQQDCTLSLQLTTPANAPIGLYRLSLEASTGYQGSSFVLGHFILLFNAWCPADAVYLDSEEERQEYVLTQQGFIYQGSAKFIKNIPWNFGQFEDGILDICLILLDVNPKFLKNAGRDCSRRSSPVYVGRVVSGMVNCNDDQGVLLGRWDNNYGDGVSPMSWIGSVDILRRWKNHGCQRVKYGQCWVFAAVACTVLRCLGIPTRVVTNYNSAHDQNSNLLIEYFRNEFGEIQGDKSEMIWNFHCWVESWMTRPDLQPGYEGWQALDPTPQEKSEGTYCCGPVPVRAIKEGDLSTKYDAPFVFAEVNADVVDWIQQDDGSVHKSINRSLIVGLKISTKSVGRDEREDITHTYKYPEGSSEEREAFTRANHLNKLAEKEETGMAMRIRVGQSMNMGSDFDVFAHITNNTAEEYVCRLLLCARTVSYNGILGPECGTKYLLNLNLEPFSEKSVPLCILYEKYRDCLTESNLIKVRALLVEPVINSYLLAERDLYLENPEIKIRILGEPKQKRKLVAEVSLQNPLPVALEGCTFTVEGAGLTEEQKTVEIPDPVEAGEEVKVRMDLLPLHMGLHKLVVNFESDKLKAVKGFRNVIIGPA		
